ChEMBL document CHEMBL1201862, “PubChem BioAssay data set” (2004)
One block for each molecule: values may come before it. Active and inactive are the calls of the source.

What was measured:
Cannabinoid receptor 1 = Cannabinoid receptor 1 (Homo sapiens, UniProt P21554); test: SAR analysis of antagonists of the Cannabinoid Receptor 1 using an Image-Based Assay. [Related pubchem assays (depositor defined):AID1961, AID1965]; format: functional
Cannabinoid receptor 2 [1] = target: T1, Cannabinoid receptor 2 (Homo sapiens, UniProt P34972); test: SAR analysis of agonists of the Cannabinoid Receptor 2 using an Image-Based Assay - Set 2. [Related pubchem assays (depositor defined):AID1961, AID1965]; format: functional
T1 sequence (P34972 whole entry): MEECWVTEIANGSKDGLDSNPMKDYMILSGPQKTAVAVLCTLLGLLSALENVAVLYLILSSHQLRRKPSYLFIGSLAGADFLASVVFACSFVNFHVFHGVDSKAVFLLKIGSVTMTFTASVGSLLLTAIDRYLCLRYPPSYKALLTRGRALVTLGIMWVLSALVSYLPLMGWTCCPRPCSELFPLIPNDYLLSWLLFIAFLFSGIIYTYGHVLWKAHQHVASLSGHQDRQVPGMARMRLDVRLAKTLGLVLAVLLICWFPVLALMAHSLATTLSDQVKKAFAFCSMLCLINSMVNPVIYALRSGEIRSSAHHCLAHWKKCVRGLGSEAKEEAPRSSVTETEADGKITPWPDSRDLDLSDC

Cannabinoid receptor 2 [2] = target: T1, Cannabinoid receptor 2; test: SAR analysis of antagonists of the Cannabinoid Receptor 2 using an Image-Based Assay - Set 2. [Related pubchem assays (depositor defined):AID1961, AID1965]; format: functional
[3] = target: T2, G-protein coupled receptor 55 (Homo sapiens, UniProt Q9Y2T6); test: SAR analysis of selective Agonists of GPR55 using an Image-Based Assay. [Related pubchem assays (depositor defined):AID1961, AID1965]; format: functional
T2 sequence (Q9Y2T6 whole entry): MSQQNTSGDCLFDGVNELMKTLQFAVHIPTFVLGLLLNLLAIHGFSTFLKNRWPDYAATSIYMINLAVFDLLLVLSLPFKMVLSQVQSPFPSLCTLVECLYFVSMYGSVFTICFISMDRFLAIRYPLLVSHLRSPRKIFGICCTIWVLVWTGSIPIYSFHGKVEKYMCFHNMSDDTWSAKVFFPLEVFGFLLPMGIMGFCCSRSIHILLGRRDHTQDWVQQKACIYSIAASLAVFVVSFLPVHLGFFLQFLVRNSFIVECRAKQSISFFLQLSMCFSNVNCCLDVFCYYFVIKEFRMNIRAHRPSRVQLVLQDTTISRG

[4] = target: T2, G-protein coupled receptor 55; test: selective activators of receptor GPR55 – imaging, U2OS cells, beta-arrestin-GFP redistribution, primary screen (AID 1961); format: functional
[5] = target: 1-acylglycerol-3-phosphate O-acyltransferase ABHD5/Perilipin-5 (Homo sapiens, UniProt Q00G26+Q8WTS1); test: Luminescence-based biochemical high throughput dose response assay for inhibitors of the interaction of the lipase co-activator protein, abhydrolase domain containing 5 (ABHD5) with perilipin-5 (MLDP; PLIN5) (2K validation set). [Related pubchem assays (depositor defined):AID493035, AID493241]
Chain of 1-acylglycerol-3-phosphate O-acyltransferase ABHD5/Perilipin-5 (Q00G26 whole entry, the tested form may be a part): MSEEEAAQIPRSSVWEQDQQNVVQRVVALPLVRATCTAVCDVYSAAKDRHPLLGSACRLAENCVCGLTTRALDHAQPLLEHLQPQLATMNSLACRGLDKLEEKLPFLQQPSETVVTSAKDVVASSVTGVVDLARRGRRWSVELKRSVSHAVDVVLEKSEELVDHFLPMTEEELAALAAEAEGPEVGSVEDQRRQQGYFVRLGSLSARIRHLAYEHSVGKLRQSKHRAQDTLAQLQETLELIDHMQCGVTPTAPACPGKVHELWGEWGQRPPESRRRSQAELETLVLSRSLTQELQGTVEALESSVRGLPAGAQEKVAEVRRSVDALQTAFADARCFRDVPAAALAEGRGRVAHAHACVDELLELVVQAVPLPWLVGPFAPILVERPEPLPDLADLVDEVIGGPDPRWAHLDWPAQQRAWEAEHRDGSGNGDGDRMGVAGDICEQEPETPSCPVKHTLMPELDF
Chain of 1-acylglycerol-3-phosphate O-acyltransferase ABHD5/Perilipin-5 (Q8WTS1 whole entry, the tested form may be a part): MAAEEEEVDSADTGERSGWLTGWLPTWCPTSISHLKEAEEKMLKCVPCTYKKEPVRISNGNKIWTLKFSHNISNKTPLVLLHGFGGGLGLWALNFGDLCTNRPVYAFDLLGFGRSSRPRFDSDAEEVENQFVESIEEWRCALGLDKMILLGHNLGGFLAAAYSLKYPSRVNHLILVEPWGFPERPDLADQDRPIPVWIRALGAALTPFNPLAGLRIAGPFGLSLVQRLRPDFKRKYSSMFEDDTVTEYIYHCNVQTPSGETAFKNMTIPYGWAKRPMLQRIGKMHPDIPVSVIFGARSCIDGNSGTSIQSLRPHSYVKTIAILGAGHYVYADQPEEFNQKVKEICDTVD

Perilipin-1/ABHD5 = Perilipin-1/ABHD5 (Homo sapiens, UniProt O60240+Q8WTS1); test: Luminescence-based biochemical high throughput dose response assay for inhibitors of the interaction of the lipase co-activator protein, abhydrolase domain containing 5 (ABHD5) with perilipin-1 (PLIN1) (2K validation set). [Related pubchem assays (depositor defined):AID493027, AID493057]
Chain of Perilipin-1/ABHD5 (Q8WTS1 whole entry, the tested form may be a part): as above
Chain of Perilipin-1/ABHD5 (O60240 whole entry, the tested form may be a part): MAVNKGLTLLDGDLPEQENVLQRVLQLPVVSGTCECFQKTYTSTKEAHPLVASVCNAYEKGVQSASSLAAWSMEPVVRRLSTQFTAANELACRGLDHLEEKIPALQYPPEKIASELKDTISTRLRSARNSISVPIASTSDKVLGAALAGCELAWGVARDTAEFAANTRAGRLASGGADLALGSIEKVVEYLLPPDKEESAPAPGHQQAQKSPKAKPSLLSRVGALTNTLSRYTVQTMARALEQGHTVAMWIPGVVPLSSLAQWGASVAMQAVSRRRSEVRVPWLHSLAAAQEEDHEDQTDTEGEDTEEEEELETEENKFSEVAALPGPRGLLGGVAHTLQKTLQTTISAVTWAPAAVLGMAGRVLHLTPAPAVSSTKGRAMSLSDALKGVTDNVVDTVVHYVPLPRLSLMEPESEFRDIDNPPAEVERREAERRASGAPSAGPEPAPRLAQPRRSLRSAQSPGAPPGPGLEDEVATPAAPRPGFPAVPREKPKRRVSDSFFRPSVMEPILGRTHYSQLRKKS

[6] = target: Eukaryotic translation initiation factor 4E (Mus musculus, UniProt P63073); test: blockers of eIF4G binding by eIF4E – biochemical, TR-FRET, dose response (AID 855); format: functional;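 also: potency for disrupting eIF4E binding to eIF4GI seen as loss of FRET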
Chain of Eukaryotic translation initiation factor 4E (P63073 whole entry): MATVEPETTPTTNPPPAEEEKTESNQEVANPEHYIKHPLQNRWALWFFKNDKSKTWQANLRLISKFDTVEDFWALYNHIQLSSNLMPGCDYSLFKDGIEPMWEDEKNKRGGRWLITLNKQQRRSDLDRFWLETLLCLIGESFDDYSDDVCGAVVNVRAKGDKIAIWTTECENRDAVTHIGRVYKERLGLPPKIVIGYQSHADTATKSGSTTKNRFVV

[7] = target: T3, Tyrosine-protein phosphatase non-receptor type 7 (Homo sapiens, UniProt P35236); test: redox-active compounds inhibiting HePTP phosphatase – biochemical, fluorescence, mechanism study (AID 2068); format: functional
T3 sequence (P35236 whole entry): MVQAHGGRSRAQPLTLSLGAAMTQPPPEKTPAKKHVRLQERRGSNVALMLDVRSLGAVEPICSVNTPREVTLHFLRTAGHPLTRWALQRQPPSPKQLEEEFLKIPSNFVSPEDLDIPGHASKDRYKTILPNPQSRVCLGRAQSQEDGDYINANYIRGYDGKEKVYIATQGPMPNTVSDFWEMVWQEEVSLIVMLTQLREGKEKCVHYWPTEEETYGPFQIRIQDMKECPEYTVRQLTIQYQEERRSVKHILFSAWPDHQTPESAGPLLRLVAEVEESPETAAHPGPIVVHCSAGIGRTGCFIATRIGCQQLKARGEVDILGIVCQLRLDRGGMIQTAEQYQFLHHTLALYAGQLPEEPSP

[8] = target: T4, Ubiquitin-conjugating enzyme E2 N (Homo sapiens, UniProt P61088); format: functional
T4 sequence (P61088 whole entry): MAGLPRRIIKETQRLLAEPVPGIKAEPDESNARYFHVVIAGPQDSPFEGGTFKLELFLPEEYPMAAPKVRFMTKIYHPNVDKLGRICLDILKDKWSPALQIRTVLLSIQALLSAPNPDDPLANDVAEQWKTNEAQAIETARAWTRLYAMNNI

[9] = target: T4, Ubiquitin-conjugating enzyme E2 N; format: functional; remark: listed apart in the source
Bcl-2-related protein A1 = target: T5, Bcl-2-related protein A1 (Mus musculus, UniProt Q07440); format: functional;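 also: confirmatory dose–response counterscreen on Bfl-1, used to check hits from a UBC13 polyubiquitin inhibitor campaign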
T5 sequence (Q07440 whole entry): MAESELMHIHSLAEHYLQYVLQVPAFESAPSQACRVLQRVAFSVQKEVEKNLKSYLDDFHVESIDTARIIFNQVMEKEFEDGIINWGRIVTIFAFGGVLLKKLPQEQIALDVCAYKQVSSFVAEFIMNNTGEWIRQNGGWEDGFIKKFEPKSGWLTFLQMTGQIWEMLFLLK

[10] = loss of viability in HepG2 cells – cell-based, CellTiter-Glo, cherry-picked, cytotoxicity control for Shn3 inhibitor project, dose response (AID 624134); format: functional
[11] = Luminescence Cell-Based Dose Confirmation HTS to Identify Inhibitors of Platelet Dense Granule Release. [Related pubchem assays: 1663 (Primary HTS), 1678 (Summary of Project)]; format: functional
HEK293 [12] = test: cells; format: functional, cell-based; settings: Homo sapiens
HEK293 [13] = test: NOD2 signaling inhibitors in MDP-stimulated cells, cell-based, uHTS, luminescence (AID 2001); format: functional; settings: Homo sapiens
HEK293 [14] = test: inhibition of NOD1-driven NF-kB reporter – cell-based, luminescence, uHTS, primary screen (AID 1578); format: functional; settings: Homo sapiens
HEK293 [15] = test: cells; format: functional, cell-based; settings: Homo sapiens; remark: listed apart in the source
[16] = reduction of Shn3 3'UTR-driven luciferase in osteoblasts – cell-based, Clone20 osteoblasts, firefly luciferase, cherry-picked, dose response (AID 624132); format: functional;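 also: firefly luciferase luminescence from reporter carrying the Shn3 3'UTR in osteoblasts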
[17] = non-specific 3'UTR reporter inhibition in Clone20-Shn3RL – cell-based, Renilla luciferase, cherry-picked, counter-screen for Shn3 inhibitor project, dose response (AID 624133); format: functional
HEK293 [18] = test: cells; format: functional, cell-based; settings: Homo sapiens; remark: listed apart in the source
[19] = target: Luciferin 4-monooxygenase (Photinus pyralis, UniProt P08659); test: inhibition of purified Photinus pyralis luciferase – biochemical, luminescence, dose response (AID 1891)
Chain of Luciferin 4-monooxygenase (P08659 whole entry, the tested form may be a part): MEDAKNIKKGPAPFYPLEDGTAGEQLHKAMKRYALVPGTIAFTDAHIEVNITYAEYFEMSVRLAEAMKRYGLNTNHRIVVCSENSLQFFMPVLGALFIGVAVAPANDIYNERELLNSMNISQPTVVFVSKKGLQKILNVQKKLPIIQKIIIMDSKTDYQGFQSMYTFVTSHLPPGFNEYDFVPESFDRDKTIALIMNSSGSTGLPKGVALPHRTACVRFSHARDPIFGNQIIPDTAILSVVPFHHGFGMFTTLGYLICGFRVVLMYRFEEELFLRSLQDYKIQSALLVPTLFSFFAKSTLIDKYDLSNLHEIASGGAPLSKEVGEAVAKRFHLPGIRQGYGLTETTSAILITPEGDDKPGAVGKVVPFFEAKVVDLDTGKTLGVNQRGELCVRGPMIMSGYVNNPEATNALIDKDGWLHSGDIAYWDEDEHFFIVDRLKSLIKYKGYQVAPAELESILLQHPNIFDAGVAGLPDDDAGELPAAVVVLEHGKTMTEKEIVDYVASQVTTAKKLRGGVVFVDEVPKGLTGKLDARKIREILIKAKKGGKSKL

[20] = target: Nucleotide-binding oligomerization domain-containing protein 2 (Homo sapiens, UniProt Q9HC29); test: inhibition of NOD2-driven NF-kB reporter – cell-based, luminescence, uHTS, HEK293 (AID 1566); format: functional
Chain of Nucleotide-binding oligomerization domain-containing protein 2 (Q9HC29 whole entry, the tested form may be a part): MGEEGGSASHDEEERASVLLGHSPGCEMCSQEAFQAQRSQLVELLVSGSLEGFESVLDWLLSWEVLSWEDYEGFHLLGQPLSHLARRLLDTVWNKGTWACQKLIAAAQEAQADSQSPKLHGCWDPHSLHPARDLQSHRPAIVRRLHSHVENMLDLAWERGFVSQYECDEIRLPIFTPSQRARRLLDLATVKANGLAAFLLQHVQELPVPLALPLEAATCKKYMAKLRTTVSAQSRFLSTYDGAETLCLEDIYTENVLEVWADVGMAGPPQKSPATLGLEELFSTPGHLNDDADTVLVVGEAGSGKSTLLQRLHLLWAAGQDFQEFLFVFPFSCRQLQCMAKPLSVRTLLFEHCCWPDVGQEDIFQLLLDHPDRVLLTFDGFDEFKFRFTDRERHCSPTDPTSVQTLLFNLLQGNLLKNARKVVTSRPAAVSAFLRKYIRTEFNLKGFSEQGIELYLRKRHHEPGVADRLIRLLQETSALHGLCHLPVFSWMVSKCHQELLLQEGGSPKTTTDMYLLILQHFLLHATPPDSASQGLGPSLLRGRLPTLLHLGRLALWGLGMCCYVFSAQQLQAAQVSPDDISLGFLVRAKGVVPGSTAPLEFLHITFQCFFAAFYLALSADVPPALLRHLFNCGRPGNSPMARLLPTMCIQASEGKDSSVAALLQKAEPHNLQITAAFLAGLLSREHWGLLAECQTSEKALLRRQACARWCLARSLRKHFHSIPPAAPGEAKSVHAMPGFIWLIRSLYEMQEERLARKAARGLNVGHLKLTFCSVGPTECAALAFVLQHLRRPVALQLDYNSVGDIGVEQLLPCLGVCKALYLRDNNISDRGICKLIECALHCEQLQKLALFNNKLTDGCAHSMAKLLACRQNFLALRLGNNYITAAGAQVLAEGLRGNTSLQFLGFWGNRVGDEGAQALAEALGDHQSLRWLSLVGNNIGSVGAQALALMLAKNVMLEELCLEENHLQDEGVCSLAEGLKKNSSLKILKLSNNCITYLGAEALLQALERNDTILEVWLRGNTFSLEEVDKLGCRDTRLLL

Chain of Cannabinoid receptor 1 (P21554 whole entry): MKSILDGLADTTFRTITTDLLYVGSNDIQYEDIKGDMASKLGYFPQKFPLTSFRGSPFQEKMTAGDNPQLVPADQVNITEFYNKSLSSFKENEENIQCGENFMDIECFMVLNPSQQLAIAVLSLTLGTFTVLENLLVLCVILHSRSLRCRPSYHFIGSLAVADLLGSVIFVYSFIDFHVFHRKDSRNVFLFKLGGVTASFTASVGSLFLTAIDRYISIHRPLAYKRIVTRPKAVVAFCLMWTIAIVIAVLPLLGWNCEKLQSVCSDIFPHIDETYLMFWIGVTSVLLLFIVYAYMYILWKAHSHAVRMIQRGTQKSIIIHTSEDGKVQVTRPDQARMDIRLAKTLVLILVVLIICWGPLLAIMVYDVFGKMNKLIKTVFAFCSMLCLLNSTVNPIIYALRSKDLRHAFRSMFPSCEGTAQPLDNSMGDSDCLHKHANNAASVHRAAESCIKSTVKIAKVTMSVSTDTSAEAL

IC50 (Cannabinoid receptor 1): > 32 µM (inactive) | EC50 (Cannabinoid receptor 2 [1]): < 0.062 µM (active) | IC50 (Cannabinoid receptor 2 [2]): > 32 µM (inactive) | EC50 [3]: 1.17 µM (active) | EC50 [4]: 1 µM (active)
SMILES: O=C(CSc1nc2ccccc2s1)N1c2ccccc2Sc2ccc(C(F)(F)F)cc21

IC50 [7]: 1.54 µM (active)
SMILES: O=C(NCc1ccccc1)Nc1ccc2nc(-c3ccco3)c(-c3ccco3)nc2c1

Continued, molecule first:

SMILES: O=C(/C=C/c1ccccc1)c1ccccc1 [CHALCONE]
IC50 [5]: 4.25 µM (active) | IC50 (Perilipin-1/ABHD5): 4.19 µM (active)

SMILES: COc1cc(/C=C(\C#N)C(=O)N2CCc3ccccc32)ccc1O
IC50 [5]: > 26.5 µM (inactive) | IC50 [6]: 50 µM (inactive) | IC50 (Perilipin-1/ABHD5): 21.4 µM (inactive)

SMILES: NC(=S)N=Nc1c(O)n(C2OC(=O)c3ccccc32)c2ccccc12 (stereo not given)
IC50 [8]: 2.38 µM (active) | IC50 [9]: 3.62 µM (active) | IC50 (Bcl-2-related protein A1): > 20 µM (inactive)

SMILES: CCC1CCCCN1S(=O)(=O)c1ccc(NC(=O)c2ccncc2)cc1 (stereo not given)
AC50 [10]: 4.88 µM (active) | EC50 [11]: > 112 µM (not active) | IC50 (HEK293 [12]): > 20 µM (inactive) | IC50 (HEK293 [13]): 11.7 µM (inactive) | EC50 (HEK293 [14]): 5.51 µM (active) | IC50 (HEK293 [15]): 19.3 µM (active) | AC50 [16]: 3.43 µM (active) | AC50 [17]: 16.5 µM (active) | IC50 (HEK293 [18]): 8.23 µM (active) | EC50 [19]: > 112 µM (not active) | EC50 [20]: > 20 µM (inactive)
